Measured values as given in US8895079B2, “Combinations of botanical extracts for promoting cardiovascular health” (National Research Council of Canada, priority 2005, dated 2014).
Marks after values point to notes of the source that are not given here.

Experiments:
[1] = system: hamsters fed a diet containing 0.25% cholesterol; assay: Example 2: tissue weight to body weight ratio; assay type: in vivo, male Golden Syrian hamsters; conditions: Example 2, 5 weeks; BBRCI 100 mg/kg·d and/or PS 1% (w/w); means±SD, n=12
Description: In this example, a controlled, five week animal study was performed. A total of 48 male Golden Syrian hamsters were randomized into 4 groups of 12 and fed isocaloric diets as follows. Hamster husbandry, living and feeding conditions were similar to that used for Example 1. • Control a semi-synthetic casein-corn starch-sucrose diet that contained 0.25% (w/w) cholesterol • BBRCI control diet containing 100 mg/kg·d of BBRCI • PS control diet containing 1% (w/w) PS • BBRCI+PS control diet containing 100 mg/kg·d BBRCI and 1% (w/w) PS Table 7 summarizes the effect on tissue weight to body weight ratio (values are means±SD). Data were analyzed by one-way ANOVA followed by Tukey test when a significant treatment effect was detected. A significant difference was indicated by a p<0.05. […] The combination of BBRCI and PS (BBRCI+PS), however, reduced the average liver weight in a strong, statistically significant, and synergistic manner compared to liver weights in the BBRCI and PS groups.

[2] = system: hamsters fed a diet containing 0.25% cholesterol; assay: Example 2: five week hamster study, blood lipid levels, 0.25% cholesterol diet, 1% PS; assay type: in vivo, male Golden Syrian hamsters; conditions: BBRCI 100 mg/kg·d and/or PS 1% (w/w)
Description: In this example, a controlled, five week animal study was performed. A total of 48 male Golden Syrian hamsters were randomized into 4 groups of 12 and fed isocaloric diets as follows. Hamster husbandry, living and feeding conditions were similar to that used for Example 1. • Control a semi-synthetic casein-corn starch-sucrose diet that contained 0.25% (w/w) cholesterol • BBRCI control diet containing 100 mg/kg·d of BBRCI • PS control diet containing 1% (w/w) PS • BBRCI+PS control diet containing 100 mg/kg·d BBRCI and 1% (w/w) PS One objective of this example was to determine the effects of each intervention on circulating blood lipids including total cholesterol (T-C), high-density-lipoprotein cholesterol (HDL-C), nonHDL-C (which is indicative of LDL-C levels) and triglyceride (TG) profiles when hamsters were fed a diet containing a higher concentration of cholesterol, for example, 0.25% by weight in the diet. Table 6 summarizes the effect on blood lipid levels (values are means±SD, n=12). Data were analyzed by one-way ANOVA followed by Tukey test if significance was detected. A significant difference was indicated by a p<0.05.

[3] = system: hamsters fed an atherogenic control diet; assay: Example 1: liver cholesterol concentration (FIG. 4); assay type: in vivo, Male Golden Syrian hamsters; conditions: Example 1, 4 weeks, BBRCI 100 mg/kg·d and/or PS 1% (w/w)
Excerpt: This observation, together with lower liver weight, implies that either BBRCI or PS or combination of either can be used to treat fatty liver.

[4] = system: intestinal ABCG8 mRNA; assay: Example 1: intestinal ABCG8 mRNA expression, real-time PCR; assay type: in vivo, Male Golden Syrian hamsters; conditions: intestine; relative expression in reference to a housekeeping gene; Example 1, 4 weeks
Description: Experiments were also conducted to determine the effect on the expression of genes associated with cholesterol in the liver and intestine. Total RNA was extracted and mRNA was converted to cDNA. The mRNA expression was measured by real-time PCR with four repeats and calculated as relative expression in reference to internal control of a housekeeping gene for each sample. […] The function of ABCG5 and ABCG8 in the intestine is to transport cholesterol out of enterocytes and back to the intestine for elimination via the feces. […] The observation of our study (Example 1) has provided a strong support to the synergistic action of BBRCI and PS on cholesterol reduction.

[5] = system: rats fed a diet containing 2% cholesterol and 28% fat; assay: Example 4: six week rat study, blood total cholesterol levels; assay type: in vivo, male Sprague-Dawley rats; conditions: 6 weeks; for T-C: 2% cholesterol 28% fat diet, means±SD, n=10
Description: In this example, a controlled, six week animal study was performed in a different animal model. Six randomized groups of 10 male Sprague-Dawley rats were fed isocaloric diets as follows. […] One objective of this example was to determine the effects of each intervention on plasma cholesterol levels in a different animal model. Table 9 summarizes the effect on blood total cholesterol levels (values are means±SD, n=10).

[6] = Example 1: weekly body weight and daily feed intake; assay type: in vivo, Male Golden Syrian hamsters; conditions: Example 1, weekly body weight over 4 weeks, FIG. 5
Description: Male Golden Syrian Hamsters were purchased from Charles River Co. housed individually in cages for two weeks prior to the commencement of the study. During this adjustment period, animals were fed with regular rodent chow diet with free access to both food and water. A total of 60 hamsters were weighed and randomly assigned to one of four groups of 15 animals each. Animals are subjected to a temperature-controlled environment with a 12:12 h light/dark cycle. Each group was fed with one of the four isocaloric experimental diets for a 4 week period. […] During the course of the experiment, animals were weighed weekly and food consumption was determined on a daily basis over the course of the experiment. During the course of the experiment, data were obtained with regard to food consumption and bodyweight so that the dose of BBRCI was maintained on a mg/kg basis as the animals grew over the 4 weeks experimental period. […] This may have important implications on weight control, healthy weight management strategies, and body composition (increase lean body mass) in humans and animals. […] Thereafter, significant differences in food intake was observed from days 22-25 but this effect disappeared during days 25-28 as a small surgical intervention was performed on each animal on day 25 on the neck area of the animal, which reduced food consumption in each treatment. […]

[7] = 0.25% cholesterol diet, 5 weeks, means±SD, n=12

SMILES: COc1ccc2cc3[n+](cc2c1OC)CCc1cc2c(cc1-3)OCO2 [BBRCI, Berberine chloride]
- Heart, tissue weight to body weight ratio [1]: 0.37 ± 0.03
- Liver, tissue weight to body weight ratio [1]: 4.67 ± 0.38^ab
- Right kidney, tissue weight to body weight ratio [1]: 0.35 ± 0.03
- HDL-C Concentration [2, 7]: 93.1 ± 27.1^ab mg/dl
- T-C Concentration [2, 7]: 264.7 ± 49.8^a mg/dl
- TG Concentration [2, 7]: 549.1 ± 225.3^a mg/dl
- nonHDL-C Concentration ([2]; 0.25% cholesterol diet, 5 weeks, n=12): 173.5 ± 66.5^a mg/dl
- HDL-C % difference from Control ([2]; Example 2, 5 weeks): 1.7%
- HDL-C/nonHDL-C % difference from Control ([2]; Example 2, 5 weeks): 29%
- T-C % difference from Control ([2]; Example 2, 5 weeks): −7.8%
- TG % difference from Control ([2]; Example 2, 5 weeks): −0.2%
- nonHDL-C % difference from Control ([2]; Example 2, 5 weeks): −11.1%
- HDL-C/nonHDL-C ([2]; ratio, 0.25% cholesterol diet, 5 weeks, n=12): 0.66 ± 0.41^ab
- cholesterol concentration in the liver [3]: dramatically reduced cholesterol concentration in the liver
- ABCG8 mRNA expression [4]: 1.33 ± 0.45^a
- T-C ([5]; BBRCI 100 mg/kg·d by gavage (BBRCl-1) and/or PS 1% (w/w) in diet): 102.1 ± 30.6 mg/dL
- T-C ([5]; BBRCI 200 mg/kg·d by gavage (BBRCl-2), alone or with PS 1% (w/w)): 109.1 ± 26.7 mg/dL
- T-C % difference from Control ([5]; BBRCI 100 mg/kg·d (BBRCl-1) and/or PS 1% (w/w)): −6.7%
- T-C % difference from Control ([5]; BBRCI 200 mg/kg·d (BBRCl-2), alone or with PS 1% (w/w)): −0.3%
- body weight [6]: trend toward reduced body weights after two weeks
